Laboratory results from US8946436B2, “Oxazolidinone compounds and their uses in preparation of antibiotics” (Sichuan Gooddoctor Pharmaceutical Group Co., Ltd., priority 2011, dated 2015).
Values after ≈ are worked out from the molar mass of the structure shown. Where two headings read alike, the source gives them in different places.

Key:
ATCC 25923 = experiment: Mouse model of systemic infection; assay type: in vivo, C57 mice; settings: intravenous
Excerpt: Animal model: SPF grade C57 mice, 4-6 weeks age, weight 18-22 g, ten mice per group;
Infectious strain: ATCC 25923, grown in a MHB medium to a period of logarithmic growth;
Test compounds: Compound 13f prepared according to the methods above, and Linezolid as a control, purchased from Airsea Pharmaceutical Ltd., (Taizhou, ZheJiang Province, China;
Formulation and dosage of the test compounds: To evaluate the treating effect of compound 13f, an animal model of intraperitoneal infection by bacteria was established and grouped into 13f group and Linezolid group. The same dosage of the compound 13f and Linezolid was administrated to the groups, respectively.
The minimum lethal dose (MLD) was determined as follows: Bacterial stock liquid cultured overnight was adjusted to 0.5 McFarland with saline solution, and subsequently subjected to a proper serial dilution. 3-5 dilutions with different concentrations of the bacteria were used to infect mice (10 mice per concentration), respectively, by intraperitoneal injection with a volume of 0.5 mL of the dilution. The minimum concentration at which 100% mice were dead was regarded as MLD. For purpose of ensuring experimental reliability, two control groups (MLD control group and 1/10MLD control group) were used in this experiment. The mortality of the MLD control group was 100%, while the mortality of the 1/10OMLD control group was 30%. […] To enhance virulence of the infectious bacteria, 15% yeast was added into the bacterial liquid for infection.
Experimental animal and grouping: SPF grade C57 mice (purchased from Experiment Animal Center, West China Hospital of Sichuan University), 4-6 weeks old, weighting 18-22 g, were randomly divided into groups, including model group, and treating groups consisting of group administrated with compound 13f at 5 mg/kg, group administrated with compound 13f at 10 mg/kg, group administrated with Linezolid at 5 mg/kg and group administrated with Linezolid at 10 mg/kg, with ten mice per group.
1) Based on the MLD result from the preliminary experiment, the mice were infected by intraperitoneal injection with a saline suspension of ATCC 25923, containing 15% yeast. Injection dosage of the bacteria was 0.2 OD/mice.
2) Administration time and frequency: The above mentioned compounds (compound 13f and Linezolid) were administrated to the mice of the treating groups 1 hour before and 4 hour after the infection, respectively. Meanwhile, the mice of the model group received only solvents in the same volume as that of the compound solution administrated in the treating group. The treating groups includes compound 13f group at 10 mg/kg, compound 13f group at 5 mg/kg, Linezolid group at 10 mg/kg and Linezolid group at 5 mg/kg.
3) Administration route: intravenous injection;
4) Dissolving compounds: The compounds were dissolved with 30% water solution of hydroxypropyl-β-cyclodextrin;
5) Efficacy observation: After infection and administration, the appetites, activities, symptoms and signs of the test mice were observed regularly. The survival rate was monitored every 4 h. The observation lasted for 7 days. During this period of observation, dissection of dying mice was immediately carried out after their death, and a histopathological examination was conducted, if necessary.
6) Evaluation: Main indexes include survival time, survival rate, and CFU count of organ and blood.

S. agalactiae = experiment: In vitro antibacterial activity (MIC), S. agalactiae; assay type: cell-based; settings: S. agalactiae (5 strains)
Experimental: (§1) The test strain was inoculated into the liquid medium and cultured at 37° C. for 16-18 h. The culture liquid and MH medium were put into two blank wells of a 96-well plate, respectively. Then, the absorptions thereof were measured by a Microplate reader. The difference between the absorption values of the culture liquid and MH medium is the adsorption of the bacteria. The concentration of the culture liquid can be calculated according to the formula of 1OD=50 million CFU/mL. The culture liquid was diluted with the MH bouillon culture medium to 5000 CFU/mL for further use.
(§2) Compounds 12a, 13 and 14 were dissolved in DMSO to 1 mg/mL, and then filtered with a 0.22 μm filter to obtain the compound solutions. And then they were gradually diluted to a desired concentration (10× final concentration) with the liquid medium, so as to obtain a series of dilutions. The final concentration grade of the dilutions of each tested compound consists of 14 concentrations, which includes: 0.03125 μg/mL, […], 0.125 μg/mL, 0.25 μg/mL, […], 1 μg/mL, 2 μg/mL, 4 μg/mL, 8 μg/mL, 16 μg/mL, 32 μg/mL, 64 μg/mL, 128 μg/mL and 256 μg/mL.
(§3) 10 μL of each of the compound dilutions above was added into a well of a 96-well plate. 90 μL of the culture liquid (5000 CFU/mL) was added into each of the wells, respectively, mixed with the dilutions to render the tested compound concentration to the final concentration. The resulted mixture was incubated at 37° C. for 16-18 h, and then the OD630 thereof was measured. A culture liquid free of the tested compounds is used as a blank control, and three parallel tests with the same concentration of each compound were performed. The minimum inhibitory concentration (MIC) of each compound on the standard strain of Staphylococcus Aureus and other test strains was determined. Specifically, among the culture liquid contained in the wells of the micro-plate, the first three lowest concentrations under which growth of the test strains could be observed were chose for further evaluation of the MIC. A culture liquid free of tested compounds was used as a blank control. Each of the culture liquids was homogenized independently, and then was diluted with a sterile saline. Each of the diluted culture liquids was plated onto a MH bouillon plate and incubated at 37° C. for 20 h in incubator. After the incubation, the number of the colonies on each plate was counted. As compared with the blank control group, the lowest concentration of each of the test compound groups, at which 80% reduction in the colony number of the strains was achieved, was recorded as the MIC.

E. faecalis = experiment: In vitro antibacterial activity (MIC), E. faecalis; assay type: cell-based; settings: E. faecalis (7 strains)
Experimental: as §1, §2, §3

[1] = 10 mg/kg, 1 hour before and 4 hour after infection, 7 days observation

SMILES | in vivo treatment effect and protection effect compared with Linezolid (ATCC 25923; 5 mg/kg) | time after infection at which death of mice was observed (ATCC 25923; 5 mg/kg) | mortality (ATCC 25923; 5 mg/kg, in 24 h) | therapeutic effect compared with linezolid (ATCC 25923; 10 mg/kg) | survival rate (ATCC 25923; [1]) | MIC (S. agalactiae; Streptococcus agalactiae, read-out: MIC) | MIC (E. faecalis; Enterococcus faecalis, read-out: MIC) | mortality (ATCC 25923; 5 mg/kg, in 48 h) | mortality (ATCC 25923; 5 mg/kg, in 72 h) | protection rate (ATCC 25923; [1]) | MIC (S. agalactiae) | MIC (E. faecalis)
CC(=O)NC[C@H]1CN(c2ccc(-n3cc(-c4ccccn4)cn3)c(F)c2)C(=O)O1 [Compound 13f, (S)-N-((3-(3-fluoro-4-(4-(pyridin-2-yl)-1H-pyrazol-1-yl)phenyl)-2-oxooxazolidin-5-yl)methyl)acetamide] | better in vivo treatment effect and protection effect | 5 h | 20% | same therapeutic effect as linezolid | 100% | 0.25 to 2 µg/mL (≈ 0.632 to 5.06 µM) | 0.5 to 2 µg/mL (≈ 1.26 to 5.06 µM) | – | – | – | – | –
CC(=O)NC[C@H]1CN(c2ccc(N3CCOCC3)c(F)c2)C(=O)O1 [Linezolid, reference compound] | – | 5 h | 50% | – | – | – | – | 70% | 100% | 100% | 4 to 32 µg/mL | 4 to 32 µg/mL
